Consider 14 compounds from patent US12213978B2, “Madrasin-derivative compounds, composition and uses thereof for treating cancer” (INSTITUT GUSTAVE ROUSSY, priority 2018, dated 2025).

Data set [1] has as its system B16F10 melanoma cells expressing the intron-derived SL8 antigen. Briefly: T-cell assay: B3Z specific T-cell activation by B16F10 cells expressing the intron-derived SL8 antigen. It is filed as cell-based, mouse. The conditions noted are these: for PTP-SL8 presentation (B3Z T-cell activation): O/N. The method, then:
(§1) MCA205 mouse sarcoma cell line is cultured at 37° C. under 5% CO2 in RPMI 1640 medium (Life Technologies) in the presence of 1% glutamine, 1% sodium pyruvate, 1% non-essential amino-acids, 1% penicillin/streptomycin and 10% FBS (Life Technologies). B16F10 mouse melanoma cell line is cultured at 37° C. under 5% CO2 in DMEM medium (Life Technologies) containing 1% glutamine, 1% penicillin/streptomycin and 10% FCS under standard conditions. Stable MCA205-Globin-SL8-intron cell line are cultured under the same condition as MCA205 cell line with additional 500 μg/ml G418 (Life Technologies) for selection. Stable B16F10-Globin-SL8-intron cell line are cultured under the same condition as B16F10 cell line with additional 500 μg/ml G418 (Life Technologies) for selection. The SL8/Kb-specific (B3Z) T-cell reporter hybridoma are cultured at 37° C. under 5% CO2 in RPMI 1640 medium (Life Technologies) in the presence of 1% L-glutamine, 1% penicillin/streptomycin, 50 μM β-mercaptoéthanol and 10% FCS.
(§2) MCA205 and B16F10 mouse cell lines are transfected with the plasmid YFP-Globin-SL8-intron or with the PCDNA3 empty plasmid (negative control) with the transfection reagent jetPRIME (Ozyme) or GeneJuice (Millipore) respectively according to each manufacturer protocol. Twenty-four hours after transfection, cells are treated with different doses of Madrasin (Sigma SML 1409), Madra.HCl (3·HCl) or the different compounds herein cited. Cells are then washed three times with PBS 1× and 5.10^4 tumor cells are co-cultured with 1.10^5 B3Z hybridoma in a 96-well plate. In positive control wells, 4 μg/ml of synthetic peptide SL8 is added. Cells are then incubated overnight at 37° C. with 5% CO2. The plate is centrifuged at 1200 rpm for 5 min, cells are washed twice with PBS 1× and lysed for 5 min at 4° C. under shaking in 0.2% TritonX-100, 0.2% DTT, 0.5M K2HPO4, 0.5M KH2PO4. The lysate is centrifuged at 3000 rpm for 10 min and the supernatant is transferred to a 96-well optiplate (OptiPlaque-96, PerkinElmer). A revelation buffer containing 10 mM MgCl2, 11.2 mM β-mercaptoethanol, 0.0015% IGEPAL® CA-630 and 40 μM 4-Methylumbelliferyl β-D-Galactopyranoside (MUG) in PBS is added and the plate is incubated at room temperature for 3 hours. Finally, the β-galactosidase activity is measured using the FLUOstar OPTIMA (BMG LABTECH Gmbh, 30 Offenburg, Germany). Results are expressed as mean±SEM. *P<0.05, **P<0.01, ***P<0.001 (unpaired student t test).

The test system of data set [2] is MCA205 sarcoma cells expressing the intron-derived SL8 antigen. Briefly: T-cell assay: B3Z specific T-cell activation by MCA205 cells expressing the intron-derived SL8 antigen. It is filed as cell-based, mouse. Particulars: for PTP-SL8 presentation (B3Z T-cell activation): O/N. The method, then:
as §1, §2

A short description of the next data set: Solubility in water. The class given is physicochemical.

With `COc1ccc2c(C)nc(Nc3ccnc(OC)n3)nc2c1` [EYP190, 7-Methoxy-N-(2-methoxypyrimidin-4-yl)-4-methylquinazolin-2-amine], in data set [1] (B16F10, 60 μM), the “PTP-SL8 presentation (B3Z T-cell activation)” value (“PTP-SL8 presentation” below) is on record as “increase”.

As for `COc1ccc2c(C)nc(Nc3cc(OC)c(OC)c(OC)c3)nc2c1` [EYP188, 7-Methoxy-4-methyl-N-(3,4,5-trimethoxyphenyl)quinazolin-2-amine], the “PTP-SL8 presentation” value in data set [2] (MCA205, 60 μM) is listed as “increase”.

Take `COc1ccc2c(C)nc(Nc3ccc(C)cc3)nc2c1` [EYP156, 7-Methoxy-4-methyl-N-(p-tolyl)quinazolin-2-amine]: the “PTP-SL8 presentation” value is recorded as “not see any increase” in data set [2] (MCA205, 60 μM) and “not see any increase” in data set [1] (B16F10, 60 μM).

Consider `COc1ccc2c(C)nc(Nc3nc(C)c(C)c(=O)[nH]3)nc2c1SCC(NC(C)=O)C(=O)O` (stereo not drawn) [EYP102, N-Acetyl-S-(2-((4,5-dimethyl-6-oxo-1,6-dihydropyrimidin-2-yl)amino)-7-methoxy-4-methylquinazolin-8-yl)cysteine], for which the “PTP-SL8 presentation” value in data set [2] (MCA205, 20 μM) is “not see any increase”; in data set [1] (B16F10, 20 μM), “not see any increase”.

On to `COc1ccc2c(C)nc(Nc3nccc(OC)n3)nc2c1` [EYP179, 7-Methoxy-N-(4-methoxypyrimidin-2-yl)-4-methylquinazolin-2-amine], for which, in data set [1] (B16F10, 20 μM), the “PTP-SL8 presentation” value is listed as “increase”.

Take `COc1ccc2c(C)nc(Nc3cn(C(=O)OC(C)(C)C)c4ccccc34)nc2c1` [EYP177, t-Butyl 3-((7-methoxy-4-methylquinazolin-2-yl)amino)-1H-indole-1-carboxylate]: the “PTP-SL8 presentation” value is given as “not see any increase” in data set [2] (MCA205, 60 μM) and “not see any increase” in data set [1] (B16F10, 60 μM).

For the compound `COc1ncc(Nc2ncc3ccccc3n2)cn1` [EYP281, N-(2-Methoxypyrimidin-5-yl)quinazolin-2-amine], the “PTP-SL8 presentation” value in data set [2] (MCA205, 50 μM) is listed as “increase”; in data set [1] (B16F10, 50 μM), “increase”.

In the case of `CNc1ccnc(Nc2nc(C)c3ccc(OC)cc3n2)n1` [EYP181, N^2-(7-Methoxy-4-methylquinazolin-2-yl)-N^4-methylpyrimidine-2,4-diamine], the “PTP-SL8 presentation” value in data set [1] (B16F10, 10 μM) was “increase”.

In the case of `COc1ccc2c(C)nc(Nc3nc(C)c(C)c(=O)[nH]3)nc2c1S[C@H]1O[C@@H](CO)[C@H](O)[C@@H](O)[C@@H]1O` [EYP113, 2-((7-Methoxy-4-methyl-8-(((2R,3S,4R,5R,6S)-3,4,5-trihydroxy-6-(hydroxymethyl)tetrahydro-2H-pyran-2-yl)thio)quinazolin-2-yl)amino)-5,6-dimethylpyrimidin-4(3H)-one], the “PTP-SL8 presentation” value in data set [2] (MCA205, 10 μM) was “not see any increase”; in data set [1] (B16F10, 10 μM) it was “not see any increase”.

Consider `COc1ccc2c(C)nc(Nc3nc(C)c(C)c(=O)[nH]3)nc2c1SC1OC(COC(C)=O)C(OC(C)=O)C(OC(C)=O)C1OC(C)=O` [EYP86, ((1S,2S,4R,5S,6S)-5-Acetoxy-7,8-diacetyl-4-((2-((4,5-dimethyl-6-oxo-1,6-dihydropyrimidin-2-yl)amino)-7-methoxy-4-methylquinazolin-8-yl)thio)-3,7λ^3,8λ^3-trioxabicyclo[4.2.0]octan-2-yl)methyl Acetate], for which the “PTP-SL8 presentation” value in data set [2] (MCA205, 50 μM) is “increase”.

Take `Cc1nc(Nc2nc(C)c3ccc(OCCN4CCOCC4)cc3n2)[nH]c(=O)c1C` [EYP201, 5,6-Dimethyl-2-((4-methyl-7-(2-morpholinoethoxy)quinazolin-2-yl)amino)pyrimidin-4(3H)-one]: the “PTP-SL8 presentation” value in data set [2] (MCA205, 20 μM) is reported as “increase”; in data set [1] (B16F10, 20 μM), “increase”.

As for `COc1ccc2c(C)nc(Nc3c[nH]c4ccccc34)nc2c1` [EYP165, N-(1H-Indol-3-yl)-7-methoxy-4-methylquinazolin-2-amine], the “PTP-SL8 presentation” value is recorded as “increase” in data set [2] (MCA205, 60 μM) and “increase” in data set [1] (B16F10, 60 μM).

With `COc1ccc2c(C)nc(Nc3nc(C)c(C)c(=O)[nH]3)nc2c1` [Madrasin, 2-((7-Methoxy-4-methylquinazolin-2-yl)amino)-5,6-dimethylpyrimidin-4(3H)-one], the “PTPs-dependent antigen presentation (B3Z T-cell activation)” value in data set [2] (MCA205, 5 μM or 10 μM, dose dependent) is reported as “increase”; in data set [1] (B16F10, 5 μM or 10 μM, dose dependent), “increase”. In the data set “Solubility in water”, the solubility in water entry was “insoluble in water”.

As for `COc1ccc2c(C)nc(Nc3ccc(OC)nc3)nc2c1` [EYP174, 7-Methoxy-N-(6-methoxypyridin-3-yl)-4-methylquinazolin-2-amine], the “PTP-SL8 presentation” value in data set [1] (B16F10, 20 μM) is listed as “increase”.
